# Measurements reported in PubChem BioAssay AID651650 (Sanford-Burnham Center for Chemical Genomics, 2012).
# pIC50: −log10 of the molar value. Calls of active or inactive are those of the source.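 Rule for the calls: active = mean IC50 below 20 µM in each of the two panels, so potent in both; inactive = the rest.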
# Target: Neuropilin-1 (Homo sapiens) (UniProt O14786)
# Test: NRP-1 b1b2 CendR peptide binding inhibitors, dose response, biochemical, FP and AlphaScreen panel (AID 651650)
# Settings: NRP-1 b1b2 / RPARPAR peptide binding, FP or AlphaScreen
# [1] = AlphaScreen, run 1, individual panel run IC50
# [2] = FP, run 1, individual panel run IC50
# [3] = FP, run 2, individual panel run IC50
# Neuropilin-1 (Homo sapiens), sequence (O14786 whole entry, looked up): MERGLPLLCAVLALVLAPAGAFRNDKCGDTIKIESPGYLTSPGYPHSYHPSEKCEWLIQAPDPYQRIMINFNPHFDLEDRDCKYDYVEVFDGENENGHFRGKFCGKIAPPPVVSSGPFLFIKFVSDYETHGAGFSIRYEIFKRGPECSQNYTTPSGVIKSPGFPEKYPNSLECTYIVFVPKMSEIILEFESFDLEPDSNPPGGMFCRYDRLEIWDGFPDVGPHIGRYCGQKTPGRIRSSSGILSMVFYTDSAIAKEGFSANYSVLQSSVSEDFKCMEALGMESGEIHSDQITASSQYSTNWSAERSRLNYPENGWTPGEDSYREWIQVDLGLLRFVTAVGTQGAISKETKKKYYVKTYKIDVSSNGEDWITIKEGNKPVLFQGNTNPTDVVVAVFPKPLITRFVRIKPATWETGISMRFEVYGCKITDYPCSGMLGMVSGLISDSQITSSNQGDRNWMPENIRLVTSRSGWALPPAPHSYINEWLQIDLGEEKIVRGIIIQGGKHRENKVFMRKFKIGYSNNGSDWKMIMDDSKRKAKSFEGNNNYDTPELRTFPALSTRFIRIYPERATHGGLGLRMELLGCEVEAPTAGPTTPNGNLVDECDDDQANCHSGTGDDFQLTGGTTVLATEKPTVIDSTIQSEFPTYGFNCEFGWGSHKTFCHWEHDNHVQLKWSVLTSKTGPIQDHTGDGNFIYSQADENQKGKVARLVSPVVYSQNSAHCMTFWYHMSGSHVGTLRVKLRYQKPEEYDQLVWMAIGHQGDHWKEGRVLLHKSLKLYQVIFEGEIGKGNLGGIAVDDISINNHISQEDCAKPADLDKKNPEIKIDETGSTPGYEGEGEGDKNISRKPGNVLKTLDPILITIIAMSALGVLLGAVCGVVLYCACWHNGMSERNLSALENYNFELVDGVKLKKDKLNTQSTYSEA
SMILES,"IC50 (AlphaScreen, mean of runs)",pIC50 [1],"IC50 (FP, mean of runs)",pIC50 [2],pIC50 [3],"pIC50 (AlphaScreen, mean of runs)"
COc1cc(C(=O)OCCCOC(=O)c2cc(OC)c(OC)c(OC)c2)cc(OC)c1OC,> 100 µM (inactive),< 4.00,> 95 µM (inactive),< 4.02,< 4.02,–
O=C(COc1cc(Cl)c(Cl)cc1Cl)Nc1ccc([N+](=O)[O-])cc1Cl,> 100 µM (inactive),< 4.00,> 95 µM (inactive),< 4.02,< 4.02,–
CN(C)CCOC(c1ccc(Cl)cc1)c1ccccn1 (stereo not given),> 100 µM (inactive),< 4.00,> 95 µM (inactive),< 4.02,< 4.02,–
O=C(O)c1cccc(N2C(=O)c3cc([N+](=O)[O-])cc4cc([N+](=O)[O-])cc(c34)C2=O)c1,> 100 µM (inactive),< 4.00,> 95 µM (inactive),< 4.02,< 4.02,–
Cc1ccc(Nc2c(-c3ccccc3O)nc3ncccn23)cc1,> 100 µM (inactive),< 4.00,> 95 µM (inactive),< 4.02,< 4.02,–
CCCNC(=S)Nc1cccc(C(F)(F)F)c1,> 100 µM (inactive),< 4.00,> 95 µM (inactive),< 4.02,< 4.02,–
CC(CN1CCOCC1)OC(=O)c1ccc2c(c1)OCCO2 (stereo not given),> 100 µM (inactive),< 4.00,> 95 µM (inactive),< 4.02,< 4.02,–
COc1ccc(-c2csc(NCCc3nc4cc(C(=O)NCCCO)ccc4n3Cc3ccc(C)cc3)n2)cc1,inactive,4.56,> 95 µM (inactive),< 4.02,< 4.02,–
OCCC1CCCCN1CC(O)COCc1ccc(Cl)cc1 (stereo not given),> 100 µM (inactive),< 4.00,> 95 µM (inactive),< 4.02,< 4.02,–
CN1CCC(=NNC(=O)c2ccco2)CC1,> 100 µM (inactive),< 4.00,> 95 µM (inactive),< 4.02,< 4.02,–
O=c1c2cn[nH]c2nc(SCc2ccccc2F)n1-c1ccc(Br)cc1,> 100 µM (inactive),< 4.00,> 95 µM (inactive),< 4.02,< 4.02,–
C=C(C)C1CC=C(C)/C(=N\NC(=O)CNc2ccccc2OC)C1 (stereo not given),> 100 µM (inactive),< 4.00,> 95 µM (inactive),< 4.02,< 4.02,–
O=C(NNC(=O)c1csc(N2CCOCC2)n1)c1ccc(=O)[nH]c1,> 100 µM (inactive),< 4.00,> 95 µM (inactive),< 4.02,< 4.02,–
CCCS(=O)(=O)N1CCC(C(=O)NC2CCCC(C)C2C)CC1 (stereo not given),–,4.76,> 95 µM (inactive),< 4.02,< 4.02,4.76
NC(=O)CC[C@H](NC(=O)c1ccc(F)cc1)C(=O)N1CCN(Cc2ccc3c(c2)OCO3)CC1,> 100 µM (inactive),< 4.00,> 95 µM (inactive),< 4.02,< 4.02,–
CC(=O)Nc1ccc(NC(=O)C2CC(=O)N(c3ccc(Cl)cc3)C2)cc1 (stereo not given),–,4.75,> 95 µM (inactive),< 4.02,< 4.02,4.75
CC1(C)S[C@@H]2[C@H](NC(=O)COc3ccccc3)C(=O)N2C1C(=O)OCc1ccccc1 (stereo not given in full),> 100 µM (inactive),< 4.00,> 95 µM (inactive),< 4.02,< 4.02,–
CC(=O)/C(=N\Nc1ccc(Cl)cc1Cl)Sc1cccc2cccnc12,> 100 µM (inactive),< 4.00,> 95 µM (inactive),< 4.02,< 4.02,–
Cn1c(=O)c2c(ncn2CC(COCc2ccccc2)OCc2ccccc2)n(C)c1=O (stereo not given),> 100 µM (inactive),< 4.00,> 95 µM (inactive),< 4.02,< 4.02,–
Cc1cc(N/C(=N/S(=O)(=O)c2cc(F)ccc2F)c2ccccc2)n(-c2ccccc2)n1,> 100 µM (inactive),< 4.00,> 95 µM (inactive),< 4.02,< 4.02,–
C/C(=N\NC(=O)c1cc(O)ccc1O)c1cccc(NC(=O)c2cccc(Cl)c2)c1,> 100 µM (inactive),< 4.00,> 95 µM (inactive),< 4.02,< 4.02,–
CCOC(=O)C1=C(O)C(=O)N(c2ccccc2)C1c1cccc([N+](=O)[O-])c1 (stereo not given),> 100 µM (inactive),< 4.00,> 95 µM (inactive),< 4.02,< 4.02,–

SMILES,"IC50 (AlphaScreen, mean of runs)",pIC50 [1],"IC50 (FP, mean of runs)",pIC50 [2],pIC50 [3],"pIC50 (AlphaScreen, mean of runs)"
Cc1cc(C)n(-c2nnc3n2N=C(c2c[nH]c4ccccc24)CS3)n1,> 100 µM (inactive),< 4.00,> 95 µM (inactive),< 4.02,< 4.02,–
CC(C)(C)C(=O)COC(=O)c1cc(-c2ccncc2)nc2ccccc12,> 100 µM (inactive),< 4.00,inactive,< 4.02,4.39,–
COc1ccc(C(=O)N2CCC(C)(C(=O)NS(=O)(=O)C3CC3)C2)cc1F (stereo not given),> 100 µM (inactive),< 4.00,> 95 µM (inactive),< 4.02,< 4.02,–
COc1ccc(C2CC(C(F)(F)F)n3nc(C(=O)O)c(Cl)c3N2)cc1OC (stereo not given),> 100 µM (inactive),< 4.00,inactive,4.27,4.21,–
COC(=O)C1=C(c2cccc(C#N)c2)C[C@@H]2CC[C@H]1N2C(=O)NCCO,> 100 µM (inactive),< 4.00,> 95 µM (inactive),< 4.02,< 4.02,–
Cc1ccccc1NC(=S)NC(=O)COc1ccccc1C,–,5.18,inactive,4.49,4.46,5.18
O=C(NCCCN1CCOCC1)c1ccc2c(=O)n(-c3ccc(F)c(Cl)c3)c(=S)[nH]c2c1,> 100 µM (inactive),< 4.00,> 95 µM (inactive),< 4.02,< 4.02,–
O=C(NNc1ncnc2c1cnn2-c1ccc(F)cc1)c1ccco1,> 100 µM (inactive),< 4.00,> 95 µM (inactive),< 4.02,< 4.02,–
CC(=O)OC1CC[C@]2(C#N)[C@H]3CC[C@]4(C)[C@H](C5C=CC(=O)O5)CCC4(O)C3CCC2(O)C1 (stereo not given in full),> 100 µM (inactive),< 4.00,> 95 µM (inactive),< 4.02,< 4.02,–
C=C(C)COc1ccc(-c2[nH]ncc2-c2ccccc2)c(O)c1,> 100 µM (inactive),< 4.00,> 95 µM (inactive),< 4.02,< 4.02,–
O=C(c1cccc(F)c1)N1CCN(c2ccc([N+](=O)[O-])c(N3CCCCC3)c2)CC1,> 100 µM (inactive),< 4.00,> 95 µM (inactive),< 4.02,< 4.02,–
CCC(=O)Nc1cc2c3c(c1)CCC(=O)N3CCC2,–,4.86,> 95 µM (inactive),< 4.02,< 4.02,4.86
C=CCn1c(SCC(=O)Nc2ncc(Cc3ccc(Br)cc3)s2)nnc1-c1ccncc1,> 100 µM (inactive),< 4.00,> 95 µM (inactive),< 4.02,< 4.02,–
COC(=O)C1=C(C)NC(C)=C(C(=O)OC)C1C(=O)OC(C)C(=O)c1ccccc1 (stereo not given),> 100 µM (inactive),< 4.00,> 95 µM (inactive),< 4.02,< 4.02,–
CCc1onc(C)c1C(=O)Nc1cc(C)ccc1OC,–,4.80,> 95 µM (inactive),< 4.02,< 4.02,4.80
Cc1cccc(CN2CCN(C3CN(Cc4cn(Cc5cccc(Cl)c5)nn4)S(=O)(=O)C3)CC2)c1 (stereo not given),> 100 µM (inactive),< 4.00,> 95 µM (inactive),< 4.02,< 4.02,–
O=[N+]([O-])c1ccc(-n2nnnc2CN2CCCCC2)cc1,> 100 µM (inactive),< 4.00,> 95 µM (inactive),< 4.02,< 4.02,–
Cc1ccc(C(=O)N/C(=C\c2sccc2C)C(=O)NCc2ccco2)cc1,inactive,4.04,> 95 µM (inactive),< 4.02,< 4.02,–
CC#CCN(Cc1ccco1)C(=O)C1CCC(=O)N(Cc2ccccc2F)C1 (stereo not given),> 100 µM (inactive),< 4.00,> 95 µM (inactive),< 4.02,< 4.02,–
CCOC(=O)Cc1csc(NC(=O)CSc2ncnc3c2cnn3-c2ccccc2Cl)n1,> 100 µM (inactive),< 4.00,> 95 µM (inactive),< 4.02,< 4.02,–
CC(C)C[C@@H](COc1ccccc1)N1CCN(CCc2ccccc2)CCC1=O,> 100 µM (inactive),< 4.00,> 95 µM (inactive),< 4.02,< 4.02,–
C[C@@H](NC(=O)c1[nH]cnc1C(=O)Nc1cccc(Cl)c1)c1ccccc1,inactive,4.66,> 95 µM (inactive),< 4.02,< 4.02,–
